Measurements from ChEMBL document CHEMBL2074110, “Characterization, cDNA cloning, and functional expression of mouse ileal sodium-dependent bile acid transporter” (J Biochem, 1999).
Blank lines part the entries; values can stand above or below the compound they belong to.

Columns and labels:
Assay type in all cases: functional, cell-based
Conditions in all cases: ileocyte
[1] = target: T1, Ileal sodium/bile acid cotransporter (Mus musculus, UniProt P70172); assay: TP_TRANSPORTER: inhibition of Taurocholate uptake (Taurocholate: 0.72 uM, Lithocholate: a 100-fold excess) in isolated mouse ileocytes
T1 sequence (P70172 whole entry): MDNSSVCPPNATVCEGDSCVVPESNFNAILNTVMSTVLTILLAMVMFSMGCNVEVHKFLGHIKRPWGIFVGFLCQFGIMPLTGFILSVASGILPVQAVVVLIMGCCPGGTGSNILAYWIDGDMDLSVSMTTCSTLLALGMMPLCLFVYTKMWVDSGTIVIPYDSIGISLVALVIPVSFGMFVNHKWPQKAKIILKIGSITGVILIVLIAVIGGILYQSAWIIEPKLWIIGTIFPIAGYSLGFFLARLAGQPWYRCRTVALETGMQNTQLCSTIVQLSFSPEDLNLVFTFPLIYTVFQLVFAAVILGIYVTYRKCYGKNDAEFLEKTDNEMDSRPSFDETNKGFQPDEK

[2] = target: T1, Ileal sodium/bile acid cotransporter; assay: TP_TRANSPORTER: inhibition of Taurocholate uptake (Taurocholate: 0.72 uM, GC: a 100-fold excess) in isolated mouse ileocytes
[3] = target: T1, Ileal sodium/bile acid cotransporter; assay: TP_TRANSPORTER: inhibition of Taurocholate uptake (Taurocholate: 0.72 uM, Deoxycholate: a 100-fold excess) in isolated mouse ileocytes
[4] = target: T1, Ileal sodium/bile acid cotransporter; assay: TP_TRANSPORTER: inhibition of Taurocholate uptake (Taurocholate: 0.72 uM, CDCA: a 100-fold excess) in isolated mouse ileocytes

Compound: C[C@H](CCC(=O)O)[C@H]1CC[C@H]2[C@@H]3CC[C@@H]4C[C@H](O)CC[C@]4(C)[C@H]3CC[C@]12C [LITHOCHOLIC ACID]
Activity [1]: inhibitor [+]

Activity [2]: inhibitor [+]
Compound: C[C@H](CCC(=O)NCC(=O)O)[C@H]1CC[C@H]2[C@@H]3[C@H](O)C[C@@H]4C[C@H](O)CC[C@]4(C)[C@H]3C[C@H](O)[C@]12C [GLYCOCHOLIC ACID]

Activity [3]: inhibitor [+]
Compound: C[C@H](CCC(=O)O)[C@H]1CC[C@H]2[C@@H]3CC[C@@H]4C[C@H](O)CC[C@]4(C)[C@H]3C[C@H](O)[C@]12C [DEOXYCHOLIC ACID]

Compound: C[C@H](CCC(=O)O)[C@H]1CC[C@H]2[C@@H]3[C@H](O)C[C@@H]4C[C@H](O)CC[C@]4(C)[C@H]3CC[C@]12C [CHENODIOL]
Activity [4]: inhibitor [+]
